Assay results as given in US9765074B2, “Inhibitors of the renal outer medullary potassium channel” (Merck Sharp & Dohme Corp., priority 2013, dated 2017).

Biological target: T1, hROMK (hKir1.1) (Homo sapiens, UniProt P48048)
T1 construct: expressed in transfected cells
T1 sequence (P48048 1-391): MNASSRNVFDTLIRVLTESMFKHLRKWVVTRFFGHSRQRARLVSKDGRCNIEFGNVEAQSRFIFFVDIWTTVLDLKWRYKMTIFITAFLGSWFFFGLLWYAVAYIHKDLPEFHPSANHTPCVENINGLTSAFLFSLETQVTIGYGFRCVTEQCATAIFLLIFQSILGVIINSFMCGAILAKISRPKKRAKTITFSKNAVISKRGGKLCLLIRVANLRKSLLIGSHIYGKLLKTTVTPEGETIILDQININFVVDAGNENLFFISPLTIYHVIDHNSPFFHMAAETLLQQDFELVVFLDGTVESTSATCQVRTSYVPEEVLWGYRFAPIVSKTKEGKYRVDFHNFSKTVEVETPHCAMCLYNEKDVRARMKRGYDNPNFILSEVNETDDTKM
Experiment: Thallium Flux Assay (ROMK channel functional thallium flux, FLIPR-Tetra)
Type: cell-based
Conditions: HEK293 cells stably expressing hROMK (hKir1.1); 30 min compound incubation
Method: The following Thallium Flux Assay was performed on each of the final product compounds in the Examples.
Cell Culture Conditions—HEK293 cells stably expressing hROMK (hKir1.1) were grown at 37° C. in a 10% CO2 humidified incubator in complete growth media: Dulbecco's Modified Eagle Medium supplemented with non-essential amino acids, Penicillin/Streptomycin/Glutamine, G418 and FBS. At >80% confluency, aspirate the media from the flask and rinse with 10 mL Calcium/Magnesium-free PBS. Add 5 mL of 1× trypsin (prepared in Ca/Mg Free PBS) to T-225 flask and return flask to 37° C./CO2 incubator for 2-3 minutes. To dislodge the cell, gently bang the side of the flask with your hand. Triturate the cells completely and then transfer the cells to 25 mL complete media. Centrifuge at 1,500 rpm for 6 min followed by resuspension in complete growth media and determine cell concentration. For typical re-seeding, 4E6 cells/T-225 flask will attain >80% confluency in 4 days. Under ideal growth conditions and appropriate tissue culture practices, this cell line is stable for 40-45 passages. FluxOR Kit Components (Invitrogen F10017) • FluxOR™ Reagent (Component A) • FluxOR™ Assay Buffer (Component B)—10× Concentrate • PowerLoad™ Concentrate (Component C)—100× Concentrate • Probenecid (Component D)—Lyophilized sample is kept at −20° C. Water soluble, 100× after solubilization in 1 mL water. Store at 4° C. • FluxOR™ Chloride-free Buffer (Component E)—5× Concentrate • Potassium sulfate (K2SO4) Concentrate (Component F)—125 mM in water. Store at 4° C. • Thallium sulfate (Tl2SO4) Concentrate (Component G)—50 mM in water. Store at 4° C. • DMSO (dimethyl sulfoxide, Component H)—1 mL (100%) Reagent Preparation: FluxOR Working Solutions • 1000× FluxOR™ Reagent: Reconstitute a vial of component A in 100 μl DMSO; Mix well; Store 10 μl aliquots at −20° C. • 1× FluxOR™ Assay Buffer: Dilute Component B 10-fold with water; Adjust pH to 7.4 with Hepes/NaOH; Filter and store at 4° C. • Probenecid/Assay Buffer: 100 mL of 1× FluxOR™ Assay Buffer; 1 mL of reconstituted component D; Store at 4° C. • Loading Buffer (per microplate): 10 μl 1000× FluxOR™ Reagent; 100 μl component C; 10 mL Probenecid/Assay Buffer • Compound Buffer (per microplate): 20 mL Probenecid/Assay Buffer; 0.3 mM ouabain (10 mM ouabain in water can be stored in amber bottle/aluminum foil at room temperature); Test compound • 1× FluxOR™ Chloride-Free Buffer: Prepare 1× working solution in water. Can be stored at room temperature • Stimulant Buffer (prepared at 5× final concentration in 1× FluxOR™ Chloride-Free Buffer): 7.5 mM Thallium sulfate and 0.75 mM Potassium sulfate (to give a final assay concentration of 3 mM Thallium/0.3 mM Potassium). Store at 4° C. when not in use. If kept sterile, this solution is good for months. Assay Protocol—The ROMK channel functional thallium flux assay is performed in 384 wells, using the FLIPR-Tetra instrument. HEK-hKir1.1 cells are seeded in Poly-D-Lysine microplates and kept in a 37° C.-10% CO2 incubator overnight. On the day of the experiment, the growth media is replaced with the FluxOR™ reagent loading buffer and incubated, protected from light, at ambient temperature (23-25° C.) for 90 min. The loading buffer is replaced with assay buffer±test compound followed by 30 min incubation at ambient temperature, where the Thallium/Potassium stimulant is added to the microplate. Step Protocol • 1. Seed HEK-hKir1.1 cells (50 μl at 20,000 cells/well) in 384-well PDL coated Microplates • 2. Allow cells to adhere overnight in humidified 37° C./10% CO2 incubator • 3. Completely remove cell growth media from microplate and replace with 25 μl loading buffer • 4. Incubate Microplate at room temperature, protected form light, for 90 min • 5. Remove loading buffer and replace with 25 μl 1× Assay Buffer±test compound. • 6. Incubate microplate at room temperature, protected from light, for 30 min • 7. At FLIPR-Tetra 384: Add stimulant (Thallium/Potassium) solution to microplate and monitor fluorescence. […]

Structure (SMILES) | IC50
CC1=C(N2CC(O)C3(CCN(CCc4ccc(-n5cnnn5)nc4)CC3)C2=O)COC1=O (single isomer, unassigned) [Example 245, 4-hydroxy-2-(4-methyl-5-oxo-2,5-dihydrofuran-3-yl)-1-oxo-8-{2-[6-(1H-tetrazol-1-yl)pyridin-3-yl]ethyl}-2-aza-8-azoniaspiro[4.5]decane] | 20 nM
CC1=C(N2CCC3(CCN(C[C@@H](O)c4ccc(-n5cnnn5)nc4)CC3)C2=O)COC1=O [Example 19, 8-{(2S)-2-hydroxy-2-[6-(1H-tetrazol-1-yl)pyridin-3-yl]ethyl}-2-(4-methyl-5-oxo-2,5-dihydrofuran-3-yl)-1-oxo-2-aza-8-azoniaspiro[4.5]decane] | 30 nM
Cc1nc(-n2cnnn2)ccc1[C@@H](O)CN1CCC2(CC1)CCN(C1=C(C3CC3)C(=O)OC1)C2=O [Example 60, 2-(4-cyclopropyl-5-oxo-2,5-dihydrofuran-3-yl)-8-{(2R)-2-hydroxy-2-[2-methyl-6-(1H-tetrazol-1-yl)pyridin-3-yl]ethyl}-1-oxo-2-aza-8-azoniaspiro[4.5]decane] | 40 nM
CC1=C(N2CCC3(CCN(C(C)(C)C(O)c4ccc(-n5cnnn5)nc4)CC3)C2=O)COC1=O (single isomer, unassigned) [Example 298] | 10 nM
CC1=C(N2CCC3(CCN(C[C@H](O)c4ccnc(-n5cnnn5)c4)CC3)C2=O)COC1=O [Example 129, 8-{(2R)-2-hydroxy-2-[2-(1H-tetrazol-1-yl)pyridin-4-yl]ethyl}-2-(4-methyl-5-oxo-2,5-dihydrofuran-3-yl)-1-oxo-2-aza-8-azoniaspiro[4.5]decane] | 140 nM
CC1=C(N2CCC3(CCN(C[C@H](O)c4cccc(-n5cnnn5)c4)CC3)C2=O)COC1=O [Example 61, 8-{(2R)-2-hydroxy-2-[3-(1H-tetrazol-1-yl)phenyl]ethyl}-2-(4-methyl-5-oxo-2,5-dihydrofuran-3-yl)-1-oxo-2-aza-8-azoniaspiro[4.5]decane] | 70 nM
CC1=C(N2C(=O)C3(CCN(C[C@@H](O)c4ncc(-n5cnnn5)cc4C)CC3)CC2C)COC1=O (single isomer, unassigned) [Example 138] | 80 nM
CC1=C(N2CCC3(CCN(C(C)(C)C(O)c4ccc(-n5cnnn5)cn4)CC3)C2=O)COC1=O (single isomer, unassigned) [Example 299] | 10 nM
CC1=C(N2C(=O)C3(CCN(C[C@H](O)c4ccc(-n5cnnn5)nc4C)CC3)CC2C)COC1=O (mixture of isomers) [Example 56, 8-{(2R)-2-hydroxy-2-[2-methyl-6-(1H-tetrazol-1-yl)pyridin-3-yl]ethyl}-3-methyl-2-(4-methyl-5-oxo-2,5-dihydrofuran-3-yl)-1-oxo-2-aza-8-azoniaspiro[4.5]decane] | 20 nM
C[C@@H]1CC2(CCN(C[C@H](O)c3ccc(-n4cnnn4)nc3)CC2)C(=O)N1C1=CC(=O)OC1 [Example 83, (3R)-8-{(2R)-2-hydroxy-2-[6-(1H-tetrazol-1-yl)pyridin-3-yl]ethyl}-3-methyl-1-oxo-2-(5-oxo-2,5-dihydrofuran-3-yl)-2-aza-8-azoniaspiro[4.5]decane] | 10 nM
O=C1C=C(N2C(=O)C3(CCN(C[C@H](O)c4ccc(-n5cnnn5)nn4)CC3)CC2C2CC2)CO1 (mixture of isomers) [Example 210, 3-cyclopropyl-8-{(2S)-2-hydroxy-2-[6-(1H-tetrazol-1-yl)pyridazin-3-yl]ethyl}-2-(5-oxo-2,5-dihydrofuran-3-yl)-2,8-diazaspiro[4.5]decan-1-one] | 70 nM
CC1=C(N2CCC3(CCN(C[C@H](O)c4ccc(-n5cnnn5)c(C)n4)CC3)C2=O)COC1=O [Example 30, 8-{(2S)-2-hydroxy-2-[6-methyl-5-(1H-tetrazol-1-yl)pyridin-2-yl]ethyl}-2-(4-methyl-5-oxo-2,5-dihydrofuran-3-yl)-1-oxo-2-aza-8-azoniaspiro[4.5]decane] | 20 nM
C[C@@H]1CC2(CCN(C[C@@H](O)c3ccc(-n4cnnn4)nc3)CC2)C(=O)N1C1=CC(=O)OC1 [Example 84, (3R)-8-{(2S)-2-hydroxy-2-[6-(1H-tetrazol-1-yl)pyridin-3-yl]ethyl}-3-methyl-1-oxo-2-(5-oxo-2,5-dihydrofuran-3-yl)-2-aza-8-azoniaspiro[4.5]decane] | 10 nM
CC1CC2(CC3CCC(C2)N3C[C@H](O)c2ccc(-n3cnnn3)nc2)C(=O)N1C1=CC(=O)OC1 (single isomer, unassigned) [Example 102] | 10 nM
CC1=C(N2CCC3(CCN(C[C@H](O)c4ccc(-n5cnnn5)nc4C)CC3F)C2=O)COC1=O (single isomer, unassigned) [Example 118] | 180 nM
O=C1C=C(N2CCC3(CCN(C[C@H](O)c4cnc(-n5cnnn5)nc4)CC3)C2=O)CO1 [Example 9, 8-{(2R)-2-hydroxy-2-[2-(1H-tetrazol-1-yl)pyrimidin-5-yl]ethyl}-1-oxo-2-(5-oxo-2,5-dihydrofuran-3-yl)-2-aza-8-azoniaspiro[4.5]decane] | 80 nM
CC1=C(N2CCC3(CCN(C[C@H](C)c4ccc(-n5cnnn5)nn4)CC3)C2=O)COC1=O (single isomer, unassigned) [Example 290] | 90 nM
O=C1C=C(N2C(=O)C3(CCN(C[C@H](O)c4ccc(-n5cnnn5)cn4)CC3)CC2C2CC2)CO1 (mixture of isomers) [Example 223, 3-cyclopropyl-8-{(2S)-2-hydroxy-2-[5-(1H-tetrazol-1-yl)pyridin-2-yl]ethyl}-2-(5-oxo-2,5-dihydrofuran-3-yl)-2,8-diazaspiro[4.5]decan-1-one] | 50 nM
CC1=C(N2C(=O)C3(CCN(C[C@H](O)c4ncc(-n5cnnn5)cc4C)CC3)CC2C)COC1=O (single isomer, unassigned) [Example 137] | 80 nM
CO[C@H](CN1CCC2(CC1)CCN(C1=C(C)C(=O)OC1)C2=O)c1cnc(-n2cnnn2)cn1 [Example 281, 8-{(2R)-2-methoxy-2-[5-(1H-tetrazol-1-yl)pyrazin-2-yl]ethyl}-2-(4-methyl-5-oxo-2,5-dihydrofuran-3-yl)-1-oxo-2-aza-8-azoniaspiro[4.5]decane] | 140 nM
CC1=C(N2CCC3(CCN(C[C@@H](O)c4cc(C)c(-n5cnnn5)nn4)CC3)C2=O)COC1=O [Example 127, 8-{(2R)-2-hydroxy-2-[5-methyl-6-(1H-tetrazol-1-yl)pyridazin-3-yl]ethyl}-2-(4-methyl-5-oxo-2,5-dihydrofuran-3-yl)-1-oxo-2-aza-8-azoniaspiro[4.5]decane] | 20 nM
O=C1C=C(N2C(=O)C3(CCN(C[C@H](O)c4cnc(-n5cnnn5)cn4)CC3)CC23CC3)CO1 [Example 167, 8-{(2S)-2-hydroxy-2-[5-(1H-tetrazol-1-yl)pyrazin-2-yl]ethyl}-12-(5-oxo-2,5-dihydrofuran-3-yl)-8,12-diazadispiro[2.1.5.2]dodecan-11-one] | 10 nM
